Laboratory results from patent US12129312B2, “Peptide compound, application thereof and composition containing same” (priority 2017, dated 2024).
Read-outs that look alike come from different tables or passages of the source. Square brackets hold non-standard residues; d marks the D form. Peptide text beside a SMILES is read from it. * marks the point of attachment. Hydrocinnamoyl = O=C(CCc1ccccc1)*; Tic = O=C(O)[C@@H]1Cc2ccccc2CN1; NMeL = CN[C@@H](CC(C)C)C(=O)O

Target: T1, human Chemokine like receptor 1 (Homo sapiens, UniProt Q99788)
T1 construct: host or cells: U2OS (Tango CMKLR1-bla U2OS)
T1 sequence (Q99788 1-373): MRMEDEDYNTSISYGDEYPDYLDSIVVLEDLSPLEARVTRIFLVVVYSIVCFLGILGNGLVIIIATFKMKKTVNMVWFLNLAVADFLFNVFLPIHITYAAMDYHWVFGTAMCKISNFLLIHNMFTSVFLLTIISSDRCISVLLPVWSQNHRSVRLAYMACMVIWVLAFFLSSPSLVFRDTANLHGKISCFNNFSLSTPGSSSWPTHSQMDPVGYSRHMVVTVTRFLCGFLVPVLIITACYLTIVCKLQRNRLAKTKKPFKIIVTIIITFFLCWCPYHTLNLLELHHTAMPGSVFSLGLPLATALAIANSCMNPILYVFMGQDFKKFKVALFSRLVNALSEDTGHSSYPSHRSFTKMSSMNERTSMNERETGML
Test: Activation of Tango CMKLR1-bla U2OS cells (beta-lactamase FRET reporter)
Format: cell-based
Settings: read-out: EC50
Procedure, shortened: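 Agonist mode in Tango CMKLR1-bla U2OS cells, 10000 cells/well seeded overnight, then 10-point 3-fold compound dilutions from 10 mM DMSO stock applied for 4 h at 37 °C, 5% CO2. Beta-lactamase reporter read with CCF4-AM FRET substrate; peptide (D-Tyr)-Phe-Leu-Pro-(D-Ser)-Gln-Phe-(D-Ala)-Tic-Ser served as positive control.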

Compound	EC50 (Tango CMKLR1-bla U2OS cells, 4 hours incubation, four-parameter fit of activation rate)	EC50 (determination by the method of Effect Embodiment 1)
CC(C)C[C@H](NC(=O)[C@H](Cc1ccccc1)NC(=O)[C@H](N)Cc1ccc(O)cc1)C(=O)N1CCC[C@H]1C(=O)N[C@H](CO)C(=O)N[C@@H](CCC(N)=O)C(=O)N[C@@H](Cc1ccccc1)C(=O)N[C@H](C)C(=O)N1Cc2ccccc2C[C@H]1C(=O)N[C@@H](CO)C(=O)O [YW-3, (D-Tyr)-Phe-Leu-Pro-(D-Ser)-Gln-Phe-(D-Ala)-Tic-Ser, reference compound] (H-[dY]FLP[dS]QF[dA][Tic]S-OH)	19 nM	
CC(C)C[C@@H](C(=O)N1CCC[C@H]1C(=O)N[C@H](CO)C(=O)N[C@@H](CCC(N)=O)C(=O)N[C@@H](Cc1ccccc1)C(=O)N[C@H](C)C(=O)N1Cc2ccccc2C[C@H]1C(=O)N[C@@H](CO)C(=O)O)N(C)C(=O)[C@H](Cc1ccccc1)NC(=O)[C@@H](Cc1ccc(O)cc1)NC(=O)CCc1ccccc1 [YW-111, 3-phenylpropanoyl-(D-Tyr)-Phe-(NMe-Leu)-Pro-(D-Ser)-Gln-Phe-(D-Ala)-Tic-Ser-OH] (Hydrocinnamoyl-[dY]F[NMeL]P[dS]QF[dA][Tic]S-OH)		2 nM
